ChEMBL document CHEMBL1128392, “Receptor surface models. 2. Application to quantitative structure-activity relationships studies” (J Med Chem, 1995)

Biological target: Dopamine beta-hydroxylase (Homo sapiens, UniProt P09172)
Test: Inhibition of dopamine beta hydroxylase

Dopamine beta-hydroxylase, sequence (P09172 whole entry): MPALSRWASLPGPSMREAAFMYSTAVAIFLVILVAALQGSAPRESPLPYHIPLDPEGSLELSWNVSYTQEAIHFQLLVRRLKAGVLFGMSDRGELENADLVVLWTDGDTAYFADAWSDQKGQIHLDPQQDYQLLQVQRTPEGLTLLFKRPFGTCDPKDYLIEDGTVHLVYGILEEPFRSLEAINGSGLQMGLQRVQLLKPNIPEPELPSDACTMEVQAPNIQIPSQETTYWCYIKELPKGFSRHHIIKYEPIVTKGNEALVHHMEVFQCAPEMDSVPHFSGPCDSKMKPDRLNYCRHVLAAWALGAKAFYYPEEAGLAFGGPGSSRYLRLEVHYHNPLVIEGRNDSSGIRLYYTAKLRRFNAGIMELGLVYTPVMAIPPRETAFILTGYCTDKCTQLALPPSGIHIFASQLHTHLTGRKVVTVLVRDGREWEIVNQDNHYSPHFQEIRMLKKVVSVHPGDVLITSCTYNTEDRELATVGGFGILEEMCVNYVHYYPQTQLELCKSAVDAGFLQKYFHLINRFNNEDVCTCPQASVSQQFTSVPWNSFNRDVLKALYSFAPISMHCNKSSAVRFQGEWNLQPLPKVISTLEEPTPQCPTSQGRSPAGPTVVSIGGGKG

IC50	SMILES
97.7 µM	S=c1[nH]ccn1Cc1cc(Cl)ccc1Cl
708 µM	S=c1[nH]ccn1Cc1c(Cl)cccc1Cl
95.5 µM	S=c1[nH]ccn1Cc1ccc(Cl)cc1
204 µM	COc1ccc(Cn2cc[nH]c2=S)cc1
83.2 µM	COc1ccc(Cn2cc[nH]c2=S)cc1Br
1.51 µM	Oc1ccc(Cn2cc[nH]c2=S)cc1F
52.5 µM	S=c1[nH]ccn1Cc1cccc(Cl)c1Cl
0.676 µM	Oc1c(Cl)cc(Cn2cc[nH]c2=S)cc1Cl
36.3 µM	COc1c(F)cc(Cn2cc[nH]c2=S)cc1F
12 µM	Oc1ccc(Cn2cc[nH]c2=S)cc1Br
120 µM	Oc1ccc(Cn2cc[nH]c2=S)cc1C(F)(F)F
2.19 µM	Oc1ccc(Cn2cc[nH]c2=S)cc1O
501 µM	COc1cccc(OC)c1Cn1cc[nH]c1=S
30.9 µM	O=[N+]([O-])c1cc(Cn2cc[nH]c2=S)ccc1O
33.1 µM	S=c1[nH]ccn1Cc1ccccc1
12 µM	S=c1[nH]ccn1Cc1cccc(Cl)c1
174 µM	COc1ccc(Cn2cc[nH]c2=S)cc1C(F)(F)F
2.57 µM	Oc1ccc(Cn2cc[nH]c2=S)cc1
69.2 µM	COc1ccc(Cn2cc[nH]c2=S)cc1C
75.9 µM	Oc1cc(Cl)c(Cn2cc[nH]c2=S)c(Cl)c1
1.2 µM	Fc1cc(F)cc(Cn2cc[nH]c2=S)c1
46.8 µM	Fc1ccc(Cn2cc[nH]c2=S)cc1
158 µM	COc1cccc(Cn2cc[nH]c2=S)c1

IC50	SMILES
200 µM	FC(F)(F)c1ccc(Cn2cc[nH]c2=S)cc1
5.62 µM	Fc1cccc(Cn2cc[nH]c2=S)c1
148 µM	Oc1cccc(Cn2cc[nH]c2=S)c1
575 µM	Oc1ccccc1Cn1cc[nH]c1=S
74.1 µM	COc1ccc(Cn2cc[nH]c2=S)cc1F
115 µM	S=c1[nH]ccn1Cc1ccc(Br)cc1
355 µM	S=c1[nH]ccn1Cc1ccccc1Cl
17 µM	S=c1[nH]ccn1Cc1ccc(Cl)cc1Cl
155 µM	COc1cc(Cl)c(Cn2cc[nH]c2=S)c(Cl)c1
28.2 µM	S=c1[nH]ccn1Cc1ccc(Cl)c(Cl)c1
52.5 µM	O=[N+]([O-])c1ccc(Cn2cc[nH]c2=S)cc1
339 µM	Cc1ccccc1Cn1cc[nH]c1=S
0.0741 µM	Oc1c(F)cc(Cn2cc[nH]c2=S)cc1F
74.1 µM	COc1ccccc1Cn1cc[nH]c1=S
355 µM	COc1ccc(Cn2cc[nH]c2=S)cc1[N+](=O)[O-]
61.7 µM	Oc1c(F)c(F)c(Cn2cc[nH]c2=S)c(F)c1F
339 µM	COc1ccc(Cn2cc[nH]c2=S)cc1OC
46.8 µM	COc1c(Cl)cc(Cn2cc[nH]c2=S)cc1Cl
1000 µM	Cc1cccc(C)c1Cn1cc[nH]c1=S
49 µM	Cc1cc(Cn2cc[nH]c2=S)ccc1O
2.4 µM	S=c1[nH]ccn1Cc1cc(Cl)cc(Cl)c1
148 µM	Cc1ccc(Cn2cc[nH]c2=S)cc1
102 µM	S=c1[nH]ccn1Cc1c(Cl)cc(Cl)cc1Cl
